Legend:
[1] = in vivo; cited from earlier work
[2] = tested on: healthy Chinese male volunteers; experiment: Pharmacodynamics (glucose infusion rate) in 24-h euglycemic clamp; assay type: in vivo; details: 0.4 IU/kg s.c. single dose, mean ± SD
Method: The volunteers were screened and qualified for the entry standard. […] During the trial, volunteers were requested to avoid strenuous exercises, smoking, drinking alcohol, or caffeinated drinks (e.g., tea and coffee). […] C-peptide reduction rate <30%; group B: […] The trial was carried out in accordance with the principles of the Declaration of Helsinki. This study was approved by the Ethics Committee of the First Affiliated Hospital of ChongQing Medical University (No. 20190101). All recruited volunteers underwent a single-dose euglycemic clamp test. Participants arrived at the ward on the day prior to the clamp test to ensure a 10-h fasting condition and to maintain fasting during euglycemic clamping. […] Intravenous access was obtained in one arm for a 20% glucose infusion and in the other for blood drawing. The arm for blood drawing was heated using a warming blanket to arterialize venous blood (55-65°C). […] Basal glucose (BG) was defined as the average blood glucose level before injection; the target glucose (TG) level was defined as the BG minus 0.28 mmol/[…] al., 2015b]); and we controlled the blood glucose concentration as close as possible to the TG level. The glucose infusion rate (GIR) was manually adjusted by investigators to maintain blood glucose at the target value. […] SPSS 22.0 and WinNonlin 8.1 were used for statistical analysis. […] The oscillation of glucose was calculated with formula 1-Gt (glucose at time t)/Gd (desired glucose). […] The pharmacodynamic parameters were area under the glucose infusion rate versus time curve (AUCGIR0-24 h), peak of glucose infusion rate (GIRmax), and time to […]).

[3] = group A (C-peptide reduction <30%, n = 13)
[4] = group B (C-peptide reduction ≥30% and <50%, n = 15)
[5] = group C (C-peptide reduction ≥50%, n = 11)

| Substance | half-life [1] [min] | AUCGIR0–24 h [2, 3] [mg/kg] | GIRmax [2, 3] [mg/kg/min] | TGIRmax [2, 3] [min] | AUCGIR0–24 h [2, 4] [mg/kg] | GIRmax [2, 4] [mg/kg/min] | TGIRmax [2, 4] [min] | AUCGIR0–24 h [2, 5] [mg/kg] | GIRmax [2, 5] [mg/kg/min] | TGIRmax [2, 5] [min] |
| --- | --- | --- | --- | --- | --- | --- | --- | --- | --- | --- |
| C-peptide | 20 to 30 | – | – | – | – | – | – | – | – | – |
| insulin glargine | – | 3175.9 ± 1135.2 | 3.5 ± 1.3 | 593.1 ± 198.1 | 2862.9 ± 1176.0 | 3.4 ± 1.4 | 584.0 ± 199.1 | 2526.1 ± 1222.0 | 3.0 ± 1.5 | 756.4 ± 228.0 |
